{
  "source": "patent US20040242545A1",
  "about": "“Remedy for glaucoma comprising as the active ingredient compound having p13 kinase inhibitory effect” (Santen Phamaceutical Co., Ltd., priority 2001, published 2004)",
  "format_in_all_cases": "in vivo",
  "key": {"[1]": {"tested_on": "intraocular pressure", "test": "Intraocular pressure measurement after administration into rabbit anterior chamber", "settings": "for Difference of intraocular pressure, 2 hours after administration / Difference of intraocular pressure, 4 hours after administration / Difference of intraocular pressure, 6 hours after administration: vs just before administration; for Difference of intraocular pressure, 2 hours before administration: pre-dose value vs just before administration; for Difference of intraocular pressure, just before administration: reference time point; for Maximum breadth of the intraocular pressure reduction: on 6 hours after administration", "method": "In order to examine the influence of the compound having a PI3 kinase blocking action upon the intraocular pressure reduction, measurement of intraocular pressure was conducted using an applanation tonometer or a pneumatic applanation tonometer. LY294002 and wortmannin were provided as test compounds. The former compound was dissolved in methanol to give the concentration of 10^-1 M, and thereto was added 2-hydroxypropyl-β-cyclodextrin as a solubilizer. This solution was diluted in physiological saline to give a LY294002 solution having the concentration of 10^-3 M. The amount of used 2-hydroxypropyl-β-cyclodextrin was determined to make the final concentration thereof to be 4×10^-3 M. Wortmannin was dissolved in dimethylsulfoxide to give the concentration of 10^-1 M for use in the test of administration into anterior chamber, and the obtained solution was diluted in physiological saline to give solutions having the concentration of 10^-4 M and 10^-5 M. Furthermore, dissolution of the compound was conducted in dimethylsulfoxide to give the concentration of 10^-1 M for use in the instillation test, and the obtained solution was diluted in physiological saline to give a 0.04284% (10^-3 M) solution in a suspension state. Rabbit intraocular pressure measurement: An electric current source of a tonometer (pneutonometer model 30 classic) was turned on, and calibration was conducted. […] injection needle was attached to a microsyringe, and a test compound solution or a vehicle was aspirated therein. A rabbit positioner made of aluminum for use in administration into anterior chamber was placed on a table made of aluminum. Further, a rabbit positioner made of wood for use in measurement of intraocular pressure was separately placed on the table made of aluminum. Administration into rabbit anterior chamber: A rabbit was placed on a rabbit positioner made of aluminum for use in administration into anterior chamber, and 0.4% oxybuprocaine hydrochloride was instilled to both eyes with one drop. After fixing an eye lid retractor, the bulbar conjunctiva was held with tweezers, and the needle point was passed from corneallimbus into corneal stroma in the […] direction with the depth of about 2 to 3 mm. Thereafter, the needlepoint was pierced into the anterior chamber, where the test compound solution was infused in an amount of 20 μL. […] Following the completion of the administration operation, the rabbit was brought back to the cage. The rabbit was brought out from the cage on two hours before the administration, just before the administration, and on 2, 4 and 6 hours after the administration, and was placed on the positioner made of wood. Oxybuprocaine hydrochloride at the concentration of 0.4% was instilled to both eyes, and intraocular pressure was measured after fixing the eye lid retractor. The vehicle was administered in a similar manner. Using the intraocular pressure just before the administration as a reference, results are shown by difference (mmHg) between the intraocular pressure of the reference and the intraocular pressure at each time point of the measurement. As obvious from Table 1, the intraocular pressure reduction was observed after the administration of LY294002. Maximum breadth of the intraocular pressure reduction (maximum value of the difference between values of the group administered with the vehicle and the group administered with the test compound) was observed on 6 hours after the administration of 10^-3 M LY294002, with the value of 3.7 mmHg."}, "[2]": {"tested_on": "intraocular pressure", "test": "Intraocular pressure measurement after instillation to monkey", "method": "(§1) In order to examine the influence of the compound having a PI3 kinase blocking action upon the intraocular pressure reduction, measurement of intraocular pressure was conducted using an applanation tonometer or a pneumatic applanation tonometer. Wortmannin was dissolved in dimethylsulfoxide to give the concentration of 10^−1 M for use in the test of administration into anterior chamber, and the obtained solution was diluted in physiological saline to give solutions having the concentration of 10^−4 M and 10^−5 M. Furthermore, dissolution of the compound was conducted in dimethylsulfoxide to give the concentration of 10^−1 M for use in the instillation test, and the obtained solution was diluted in physiological saline to give a 0.04284% (10^−3 M) solution in a suspension state. Monkey intraocular pressure measurement: Measurement of intraocular pressure was conducted using a pneumatic applanation tonometer (Alcon Japan. Ltd.). Test of instillation to monkey: The test compound solution in an amount of 20 μL was instilled to the eye to be administered. The measurement time of the intraocular pressure was on one hour before the administration, just before the administration, and on 2, 4 and 6 hours after the administration. Using the intraocular pressure just before the administration as a reference, results are shown by difference (mmHg) between the intraocular pressure of the reference and the intraocular pressure at each time point of the measurement. As obvious from Table 1, the intraocular pressure reduction was observed after the administration of LY294002. Maximum breadth of the intraocular pressure reduction (maximum value of the difference between values of the group administered with the vehicle and the group administered with the test compound) was observed on 6 hours after the administration of 10^−3 M LY294002, with the value of 3.7 mmHg."}, "[3]": {"tested_on": "intraocular pressure", "test": "Intraocular pressure measurement after administration into monkey anterior chamber", "method": "as §1, with “Ltd.). Administration into monkey anterior chamber:” for “Ltd.). Test of instillation to monkey:”, “The administration was carried out” for “The test compound solution”, “in accordance with the process for administering” for “in an amount of 20 μL was instilled”, “the rabbit.” for “the eye to be administered.”, “The dosage amount was 10 μL, and the” for “The”"}, "[4]": {"settings": "10^−3 M LY294002, 20 μL, mean of 6"}, "[5]": {"settings": "10^−4 M wortmannin, 20 μL, mean of 4"}, "[6]": {"settings": "10^−5 M wortmannin, 20 μL, mean of 4"}, "[7]": {"settings": "instillation, 0.04284% (10^−3 M) wortmannin suspension, 20 μL, vs just before administration, mean of 5"}, "[8]": {"settings": "10^−4 M wortmannin, 10 μL, vs just before administration"}},
  "data": [
    {"smiles": "O=c1cc(N2CCOCC2)oc2c(-c3ccccc3)cccc12", "note": "[LY294002, 2-(4-morpholinyl)-8-phenyl-4H-1-benzopyran-4-one]", "values": [
      {"measurement": "Difference of intraocular pressure, 2 hours after administration", "setting": "[1]; [4]", "value": "−3.2", "unit": "mmHg"},
      {"measurement": "Difference of intraocular pressure, 4 hours after administration", "setting": "[1]; [4]", "value": "−2.7", "unit": "mmHg"},
      {"measurement": "Difference of intraocular pressure, 6 hours after administration", "setting": "[1]; [4]", "value": "−2.1", "unit": "mmHg"},
      {"measurement": "Maximum breadth of the intraocular pressure reduction (maximum difference between vehicle group and test compound group)", "setting": "[1]; 10^−3 M LY294002, on 6 hours after administration", "value": 3.7, "unit": "mmHg"},
      {"measurement": "Difference of intraocular pressure, 2 hours before administration", "setting": "[1]; 10^−3 M LY294002 group, 20 μL, mean of 6", "value": 1.9, "unit": "mmHg"},
      {"measurement": "Difference of intraocular pressure, just before administration", "setting": "[1]; 10^−3 M LY294002 group, mean of 6", "value": 0.0, "unit": "mmHg"}
    ]},
    {"smiles": "COC[C@H]1OC(=O)c2coc3c2[C@@]1(C)C1=C(C3=O)[C@@H]2CCC(=O)[C@@]2(C)C[C@H]1OC(C)=O", "note": "[wortmannin]", "values": [
      {"measurement": "Difference of intraocular pressure, 2 hours before administration", "setting": "[1]; 10^−4 M wortmannin group, 20 μL, mean of 4", "value": 2.2, "unit": "mmHg"},
      {"measurement": "Difference of intraocular pressure, just before administration", "setting": "[1]; 10^−4 M wortmannin group, mean of 4", "value": 0.0, "unit": "mmHg"},
      {"measurement": "Difference of intraocular pressure, 2 hours after administration", "setting": "[1]; [5]", "value": "−1.2", "unit": "mmHg"},
      {"measurement": "Difference of intraocular pressure, 4 hours after administration", "setting": "[1]; [5]", "value": "−2.8", "unit": "mmHg"},
      {"measurement": "Difference of intraocular pressure, 6 hours after administration", "setting": "[1]; [5]", "value": "−3.0", "unit": "mmHg"},
      {"measurement": "Maximum breadth of the intraocular pressure reduction", "setting": "[1]; 10^−4 M wortmannin", "value": 6.9, "unit": "mm Hg"},
      {"measurement": "Difference of intraocular pressure, 2 hours before administration", "setting": "[1]; 10^−5 M wortmannin group, 20 μL, mean of 4", "value": 1.2, "unit": "mmHg"},
      {"measurement": "Difference of intraocular pressure, just before administration", "setting": "[1]; 10^−5 M wortmannin group, mean of 4", "value": 0.0, "unit": "mmHg"},
      {"measurement": "Difference of intraocular pressure, 2 hours after administration", "setting": "[1]; [6]", "value": "−1.5", "unit": "mmHg"},
      {"measurement": "Difference of intraocular pressure, 4 hours after administration", "setting": "[1]; [6]", "value": "−1.0", "unit": "mmHg"},
      {"measurement": "Difference of intraocular pressure, 6 hours after administration", "setting": "[1]; [6]", "value": 0.6, "unit": "mmHg"},
      {"measurement": "Maximum breadth of the intraocular pressure reduction", "setting": "[1]; 10^−5 M wortmannin", "value": 3.3, "unit": "mmHg"},
      {"measurement": "Maximum breadth of the intraocular pressure reduction", "setting": "[2]; instillation of wortmannin (0.04284%), on 4 hours after administration", "value": 2.8, "unit": "mmHg"},
      {"measurement": "Difference of intraocular pressure, 1 hours before administration", "setting": "[2]; instillation, 0.04284% (10^−3 M) wortmannin group, 20 μL, pre-dose value vs just before administration, mean of 5", "value": 1.1, "unit": "mmHg"},
      {"measurement": "Difference of intraocular pressure, 2 hours after administration", "setting": "[2]; [7]", "value": "−2.6", "unit": "mmHg"},
      {"measurement": "Difference of intraocular pressure, 4 hours after administration", "setting": "[2]; [7]", "value": "−3.4", "unit": "mmHg"},
      {"measurement": "Difference of intraocular pressure, 6 hours after administration", "setting": "[2]; [7]", "value": "−1.5", "unit": "mmHg"},
      {"measurement": "Difference of intraocular pressure, just before administration", "setting": "[2]; instillation, 0.04284% wortmannin group, reference time point, mean of 5", "value": 0.0, "unit": "mmHg"},
      {"measurement": "Difference of intraocular pressure, 1 hours before administration", "setting": "[3]; 10^−4 M wortmannin group, 10 μL, pre-dose value vs just before administration", "value": 0.7, "unit": "mmHg"},
      {"measurement": "Difference of intraocular pressure, just before administration", "setting": "[3]; 10^−4 M wortmannin group, reference time point", "value": 0.0, "unit": "mmHg"},
      {"measurement": "Difference of intraocular pressure, 2 hours after administration", "setting": "[3]; [8]", "value": "−4.8", "unit": "mmHg"},
      {"measurement": "Difference of intraocular pressure, 4 hours after administration", "setting": "[3]; [8]", "value": "−4.3", "unit": "mmHg"},
      {"measurement": "Difference of intraocular pressure, 6 hours after administration", "setting": "[3]; [8]", "value": "−2.1", "unit": "mmHg"},
      {"measurement": "Maximum intraocular pressure reduction", "setting": "[3]; wortmannin (10^−4 M), on 2 hours after administration", "value": 4.5, "unit": "mmHg"}
    ]}
  ]
}
